Measurements reported in ChEMBL document CHEMBL4229400, “Covalent inhibitors of nicotinamide N-methyltransferase (NNMT) provide evidence for target engagement challenges in situ” (Bioorg Med Chem Lett, 2018).
Positions count from the first letter of the chain named. Active and inactive are the calls of the source. The rule behind the calls is not given here.

Tests used:
[1] = biological target: T1, Nicotinamide N-methyltransferase (Homo sapiens) (UniProt P40261); assay: Inhibition of SAH-rhodamine binding to NNMT in human 786-O cell soluble proteomic lysate at 2 uM preincubated for 1 hr followed by SAH-rhodamine addition measured after 5 mins by Gel-based ABPP analysis
T1 sequence (whole entry): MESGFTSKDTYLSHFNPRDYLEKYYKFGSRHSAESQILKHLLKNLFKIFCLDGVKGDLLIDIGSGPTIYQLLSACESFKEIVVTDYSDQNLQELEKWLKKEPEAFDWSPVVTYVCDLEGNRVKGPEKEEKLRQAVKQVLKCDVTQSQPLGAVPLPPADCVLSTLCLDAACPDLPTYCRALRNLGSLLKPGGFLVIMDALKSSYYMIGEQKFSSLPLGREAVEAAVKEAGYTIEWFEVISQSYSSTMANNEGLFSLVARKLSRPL

[2] = tested on: T2, Nicotinamide N-methyltransferase (Homo sapiens), P40261 [C165A]; assay: Inhibition of NNMT C165A mutant in human 786-O cell lysate using d4-nicotinamide as substrate preincubated for 1 hr followed by substrate and SAM addition measured after 15 to 30 mins by LC-MS analysis
T2 sequence (whole entry): T1 sequence (whole entry) with C165A

[3] = biological target: T1, Nicotinamide N-methyltransferase (Homo sapiens); assay: Binding affinity to NNMT C165 residue in human 786-O cell soluble proteomic lysate at 1 to 5 uM incubated for 1 hr followed by cell lysis by IA-alkyne probe based isoTOP-ABPP analysis
[4] = biological target: T3, Glutathione S-transferase omega-1 (Homo sapiens) (UniProt P78417); assay: Binding affinity to GSTO1 cysteine residue in human 786-O cell soluble proteomic lysate at 5 uM incubated for 1 hr followed by cell lysis by IA-alkyne probe based isoTOP-ABPP analysis
T3 sequence (whole entry): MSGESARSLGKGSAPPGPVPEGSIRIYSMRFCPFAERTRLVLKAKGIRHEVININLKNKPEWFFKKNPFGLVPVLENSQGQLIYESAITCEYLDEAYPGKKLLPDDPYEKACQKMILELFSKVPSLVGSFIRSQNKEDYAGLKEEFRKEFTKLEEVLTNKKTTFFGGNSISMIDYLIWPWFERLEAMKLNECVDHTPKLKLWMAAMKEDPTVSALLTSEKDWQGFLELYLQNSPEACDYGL

[5] = biological target: T1, Nicotinamide N-methyltransferase (Homo sapiens); assay: Binding affinity to NNMT C165 residue in human 786-O cell lysate at 5 uM incubated for 4 hrs followed by cell lysis by IA-alkyne probe based isoTOP-ABPP analysis
[6] = biological target: T4, Heme oxygenase 2 (Homo sapiens) (UniProt P30519); assay: Binding affinity to HMOX2 cysteine residue in human 786-O cell soluble proteomic lysate at 5 uM incubated for 1 hr followed by cell lysis by IA-alkyne probe based isoTOP-ABPP analysis
T4 sequence (whole entry): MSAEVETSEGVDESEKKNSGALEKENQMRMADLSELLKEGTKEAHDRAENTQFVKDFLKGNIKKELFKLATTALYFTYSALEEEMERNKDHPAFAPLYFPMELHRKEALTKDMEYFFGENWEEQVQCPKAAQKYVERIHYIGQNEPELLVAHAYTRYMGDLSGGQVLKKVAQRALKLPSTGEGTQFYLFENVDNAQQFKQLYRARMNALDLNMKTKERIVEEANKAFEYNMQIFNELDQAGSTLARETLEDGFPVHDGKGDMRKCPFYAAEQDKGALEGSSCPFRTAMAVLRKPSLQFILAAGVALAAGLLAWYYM

[7] = biological target: T5, Cytoskeleton-associated protein 4 (Homo sapiens) (UniProt Q07065); assay: Binding affinity to CKAP4 cysteine residue in human 786-O cell soluble proteomic lysate at 5 uM incubated for 1 hr followed by cell lysis by IA-alkyne probe based isoTOP-ABPP analysis
T5 sequence (whole entry): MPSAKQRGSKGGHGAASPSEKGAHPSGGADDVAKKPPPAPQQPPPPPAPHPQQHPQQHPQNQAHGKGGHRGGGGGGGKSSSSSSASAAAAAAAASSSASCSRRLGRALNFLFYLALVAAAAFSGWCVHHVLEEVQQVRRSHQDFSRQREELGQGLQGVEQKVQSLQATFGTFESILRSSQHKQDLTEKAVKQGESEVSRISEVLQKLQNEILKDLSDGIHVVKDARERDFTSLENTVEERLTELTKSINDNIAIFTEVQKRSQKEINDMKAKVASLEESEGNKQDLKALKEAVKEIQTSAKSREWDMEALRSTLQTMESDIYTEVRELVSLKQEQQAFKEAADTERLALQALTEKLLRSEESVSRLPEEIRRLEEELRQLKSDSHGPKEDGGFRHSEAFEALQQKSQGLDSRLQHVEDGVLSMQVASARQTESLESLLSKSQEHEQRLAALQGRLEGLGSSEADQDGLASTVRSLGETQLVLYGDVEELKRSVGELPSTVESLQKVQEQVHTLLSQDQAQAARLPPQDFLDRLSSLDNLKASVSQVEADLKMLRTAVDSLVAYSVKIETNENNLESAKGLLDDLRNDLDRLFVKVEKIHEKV

[8] = biological target: T6, Nicotinamide N-methyltransferase (Homo sapiens, UniProt P40261); assay: (§1) Inhibition of SAH-rhodamine binding to NNMT in human 786-O cell soluble proteomic lysate preincubated for 1 hr followed by SAH-rhodamine addition measured after 5 mins by Gel-based ABPP analysis
T6 sequence (P40261 whole entry): T1 sequence (whole entry)

[9] = biological target: T1, Nicotinamide N-methyltransferase (Homo sapiens); assay: as §1
[10] = biological target: T1, Nicotinamide N-methyltransferase (Homo sapiens); assay: Binding affinity to NNMT C115 residue in human 786-O cell soluble proteomic lysate at 5 uM incubated for 1 hr followed by cell lysis by IA-alkyne probe based isoTOP-ABPP analysis relative to control
[11] = biological target: T1, Nicotinamide N-methyltransferase (Homo sapiens); assay: Binding affinity to NNMT C75 residue in human 786-O cell soluble proteomic lysate at 5 uM incubated for 1 hr followed by cell lysis by IA-alkyne probe based isoTOP-ABPP analysis relative to control
[12] = biological target: T1, Nicotinamide N-methyltransferase (Homo sapiens); assay: Inhibition of SAH-rhodamine binding to NNMT in human 786-O cell soluble proteomic lysate assessed as ratio of observed rate constant to test compound concentration preincubated for 10 to 40 mins followed by SAH-rhodamine addition measured after 5 mins by Gel-based ABPP analysis
[13] = biological target: T1, Nicotinamide N-methyltransferase (Homo sapiens); assay: Binding affinity to NNMT C165 residue in human 786-O cell soluble proteomic lysate at 5 uM incubated for 1 hr followed by cell lysis by IA-alkyne probe based isoTOP-ABPP analysis relative to control
[14] = biological target: T6, Nicotinamide N-methyltransferase; assay: (§2) Inhibition of NNMT in human 786-O cell lysate using d4-nicotinamide as substrate preincubated for 1 hr followed by substrate and SAM addition measured after 15 to 30 mins by LC-MS analysis
[15] = biological target: T1, Nicotinamide N-methyltransferase (Homo sapiens); assay: as §2
[16] = biological target: T1, Nicotinamide N-methyltransferase (Homo sapiens); assay: Binding affinity to NNMT C50 residue in human 786-O cell soluble proteomic lysate at 5 uM incubated for 1 hr followed by cell lysis by IA-alkyne probe based isoTOP-ABPP analysis relative to control

## CC(C)CCN(C(=O)CCl)c1cc(C(=O)Nc2cccnc2Cl)cc(C(F)(F)F)c1
[1]
  inhibition: Active
[2]
  inhibition: inactive
[3]
  Activity: Active
[4]
  Activity: Active
[5]
  Activity: inactive
[6]
  Activity: Active
[7]
  Activity: Active
[8]
  IC50: 410 nM
[9]
  inhibition: Dose-dependent effect
[10]
  fold change (FC): 1
[11]
  fold change (FC): 1.3
[12]
  Ratio: 200 M⁻¹ s⁻¹
[13]
  fold change (FC): 20
[14]
  IC50: 200 nM
[15]
  inhibition: Dose-dependent effect
[16]
  fold change (FC): 1.3
